Data as given in patent US10040789B2, “1,3,4-thiadiazole compounds and their use in treating cancer” (AstraZeneca AB, priority 2015, dated 2018).
pIC50: −log10 of the molar value. Like-named read-outs stand apart in the source and are kept apart here.

Tests used:
NCI-H1703 cells = experiment: GLS Cell Proliferation Assay (NCI-H1703 cell proliferation); assay type: cell-based
Text: (§1) The following assays were used to measure the effects of the compounds described herein: a) GLS Enzyme Potency Assay; b) GLS Cell Potency Assay; c) GLS Cell Proliferation Assay. During the description of the assays, generally: • i. The following abbreviations have been used: CO2=Carbon dioxide; DMEM=Dulbecco's Modified Eagle Medium; DMSO=Dimethyl sulphoxide; EDTA=Ethylenediaminetetraacetic acid; EGTA=Ethylene glycol tetraacetic acid; FCS=Foetal calf serum; h=Hour(s); NBS=Non-binding surface; SDS=Sodium dodecyl sulphate; TRIS=Tris(Hydroxymethyl)aminomethane. • ii. IC50 values were calculated using a smart fitting model in Genedata.
Assay c): GLS Cell Proliferation Assay
The ability of compounds to inhibit cell growth was measured using a 384 well plate NCI-H1703 cell proliferation assay. NCI-H1703 cells were grown in phenol red free RPMI1640, 10% FCS and 2 mM glutamine and seeded at a density of 750 cells per well in 40 μl of growth medium into clear-bottom 384 well assay plates (Corning product code 3712) and incubated for 24 h at 37° C., 5% CO2. Test compounds were prepared by dilution in 100% DMSO to give the correct dose range for 12 point concentration response and an appropriate volume (5-120 nl) dispensed directly into the assay plates containing plated cells. DMSO concentration was maintained at 0.3% by back filling with DMSO solution. Plates were incubated for 5 days at 37° C., 5% CO2, Sytox Green and Saponin added to final concentration of 2 μM and 0.25% respectively and incubated for 6 h prior to analysis. Plates were read on an Acumen eX3 (TTP Labtech) using 488 nm excitation and FITC filter set (500-530 nm) for emission. IC50 values were calculated by curve fitting to max inhibition of day zero growth using GeneData software analysis.

[1] = target: cellular GLS activity in PC3 cells (Homo sapiens (Human), UniProt O94925); experiment: GLS Cell Potency Assay (PC3 coupled assay measuring cellular glutamate depletion); assay type: cell-based; details: PC3 cells, 6 h incubation, cellular glutamate depletion; read-out: Assay b) GLS cell MOA Mean IC50
cellular GLS activity in PC3 cells, sequence (O94925 55-669): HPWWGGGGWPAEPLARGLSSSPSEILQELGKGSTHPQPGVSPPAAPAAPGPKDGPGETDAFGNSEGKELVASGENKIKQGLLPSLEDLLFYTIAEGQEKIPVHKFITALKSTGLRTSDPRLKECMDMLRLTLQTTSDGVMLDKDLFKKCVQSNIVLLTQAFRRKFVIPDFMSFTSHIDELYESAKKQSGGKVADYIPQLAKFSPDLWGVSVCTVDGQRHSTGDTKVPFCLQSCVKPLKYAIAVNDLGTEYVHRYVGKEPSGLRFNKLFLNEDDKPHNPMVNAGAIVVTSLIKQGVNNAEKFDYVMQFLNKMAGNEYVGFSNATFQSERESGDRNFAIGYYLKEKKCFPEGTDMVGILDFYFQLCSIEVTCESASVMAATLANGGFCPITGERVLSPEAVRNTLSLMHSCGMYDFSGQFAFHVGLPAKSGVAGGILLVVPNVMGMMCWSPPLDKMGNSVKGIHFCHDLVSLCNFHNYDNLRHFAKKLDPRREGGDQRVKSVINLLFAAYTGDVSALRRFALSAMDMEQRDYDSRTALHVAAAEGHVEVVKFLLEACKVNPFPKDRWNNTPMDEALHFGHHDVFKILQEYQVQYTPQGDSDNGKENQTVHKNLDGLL
Text: as §1
Assay b): GLS Cell Potency Assay
Compounds were assessed for their potential to inhibit cellular GLS activity by use of a PC3 coupled assay measuring cellular glutamate depletion. […] DMSO concentration was maintained at 0.3% by back filling with DMSO solution. PC3 cells were grown in phenol free DMEM, 10% dialyzed FCS, 2 mM glutamine and following dispersal by trypsinisation were plated at 5.6×10^3 cells per well in 40 μl of growth medium directly into the 384 well assay plates containing dispensed compound. After incubation for 6 h at 37° C., 5% CO2 growth media was aspirated and cells lysed in 15 μl of buffer containing 10 mM TRIS pH7.4, 100 mM NaCl, 1 mM EDTA, 1 mM EGTA, 1 mM NaF, 20 mM Na4P2O7, 2 mM Na3VO4, 1% Triton X-100, 10% glycerol, 0.1% SDS and 0.5% deoxycholate. 4 μl Of cell lysate was then transferred to a 384 well NBS plate (Corning product code 3575) and 35 μl of […] Amplex Red, 0.1375 U/mL Horseradish Peroxidase, 0.044 U/mL glutamate oxidase, 100 mM TRIS pH7.5 was added.

GLS1 = GLS1 (Homo sapiens (Human), UniProt O94925); experiment: GLS Enzyme Potency Assay (Glutamate Oxidase/AmplexRed coupled assay); assay type: biochemical
GLS1, sequence (O94925 63-669): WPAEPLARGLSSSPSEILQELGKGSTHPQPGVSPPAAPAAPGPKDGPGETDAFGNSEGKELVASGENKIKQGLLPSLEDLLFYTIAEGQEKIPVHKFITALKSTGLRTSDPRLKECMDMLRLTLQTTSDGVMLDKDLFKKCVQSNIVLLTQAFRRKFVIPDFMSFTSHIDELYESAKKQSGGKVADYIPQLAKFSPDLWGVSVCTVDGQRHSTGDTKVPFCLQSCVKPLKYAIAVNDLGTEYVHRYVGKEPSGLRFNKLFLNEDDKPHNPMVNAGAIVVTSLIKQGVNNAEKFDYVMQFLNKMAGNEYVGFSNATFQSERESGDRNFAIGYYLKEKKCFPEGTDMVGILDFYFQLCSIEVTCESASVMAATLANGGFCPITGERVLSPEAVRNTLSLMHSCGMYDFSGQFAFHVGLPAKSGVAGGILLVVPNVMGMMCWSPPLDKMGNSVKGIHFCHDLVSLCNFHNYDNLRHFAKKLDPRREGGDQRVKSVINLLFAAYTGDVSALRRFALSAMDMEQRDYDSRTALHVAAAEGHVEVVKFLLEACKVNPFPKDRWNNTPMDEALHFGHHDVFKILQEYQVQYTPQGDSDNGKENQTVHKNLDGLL
Text: as §1
Assay a): GLS Enzyme Potency Assay
A Glutamate Oxidase/AmplexRed coupled assay was used to measure the ability of compounds to bind to and inhibit the activity of GLS1 in vitro. […] GLS1 was diluted to 2×working concentration and incubated at room temperature to allow the tetrameric/dimeric forms to reach steady state. Assay measurements were performed in buffer comprising 50 mM TRIS pH 7.8, 100 mM NaPO4, pH 7.8, 0.001% v/v Tween20. […] DMSO concentration was maintained at 2% by back filling with DMSO solution. […] 3 μL of 100 mM glutamine diluted in assay buffer was then added and the reaction incubated at room temperature for 60 minutes. […] An artefact version of the assay where the 6His tagged GLS protein and glutamine were replaced with assay buffer was also used to rule out non specific effects on the assay components.

[2] = Homo sapiens, 120 h; NCI-H1703 cells, 5 days incubation, Sytox Green; read-out: Assay c) Prolif Mean IC50
[3] = Homo sapiens, NCI-H1703, 120 h, NCI-H1703 cells, 5 days incubation, Sytox Green; read-out: Assay c) Prolif Mean IC50
[4] = recombinant 6His tagged GLS protein (amino acids 63-669), 60 minutes reaction with glutamine

| Compound | pIC50 [1] | pIC50 (GLS1) | pIC50 (GLS1; [4]) | pIC50 (NCI-H1703 cells; [2]) | pIC50 (NCI-H1703 cells; [3]) | pIC50 (NCI-H1703 cells; NCI-H1703 cells, 5 days incubation, Sytox Green; read-out: Assay c) Prolif Mean IC50) |
| --- | --- | --- | --- | --- | --- | --- |
| CN(C)[C@H](C(=O)Nc1nnc(N[C@@H]2CCN(c3cccnn3)C2)s1)c1cccc(C#N)c1 [Example 13, (2S)-2-(3-cyanophenyl)-2-(dimethylamino)-N-[5-[[(3R)-1-pyridazin-3-ylpyrrolidin-3-yl]amino]-1,3,4-thiadiazol-2-yl]acetamide] | 7.95 | 6.65 |  | 7.11 |  |  |
| Cc1ccccc1[C@@H](C(=O)Nc1nnc(N[C@@H]2CCN(c3cccnn3)C2)s1)N(C)C [Example 17, (2S)-2-(dimethylamino)-2-(o-tolyl)-N-[5-[[(3R)-1-pyridazin-3-ylpyrrolidin-3-yl]amino]-1,3,4-thiadiazol-2-yl]acetamide] | 7.97 |  | 6.73 | 6.79 |  |  |
| CN(C)[C@H](C(=O)Nc1nnc(N[C@@H]2CCN(c3cccnn3)C2)s1)c1cccc(OC(F)(F)F)c1 [Example 18, (2S)-2-(dimethylamino)-N-[5-[[(3R)-1-pyridazin-3-ylpyrrolidin-3-yl]amino]-1,3,4-thiadiazol-2-yl]-2-[3-(trifluoromethoxy)phenyl]acetamide] | 8.96 |  | 6.74 |  |  | 8.45 |

Continued by rising pIC50 [1], values first:

| pIC50 [1] | pIC50 (GLS1) | pIC50 (GLS1; [4]) | Compound | pIC50 (NCI-H1703 cells; [2]) | pIC50 (NCI-H1703 cells; [3]) | pIC50 (NCI-H1703 cells; NCI-H1703 cells, 5 days incubation, Sytox Green; read-out: Assay c) Prolif Mean IC50) |
| --- | --- | --- | --- | --- | --- | --- |
| 7.65 |  | 5.43 | COc1ccc([C@H](C(=O)Nc2nnc(N[C@@H]3CCN(c4cccnn4)C3)s2)N(C)C)cc1 [Example 15, (2R)-2-(dimethylamino)-2-(4-methoxyphenyl)-N-[5-[[(3R)-1-pyridazin-3-ylpyrrolidin-3-yl]amino]-1,3,4-thiadiazol-2-yl]acetamide] |  | 6.82 |  |
| 7.99 |  | 5.65 | CN(C)[C@@H](C(=O)Nc1nnc(N[C@@H]2CCN(c3cccnn3)C2)s1)c1cccc(OC(F)(F)F)c1 [Example 14, (2R)-2-(dimethylamino)-N-[5-[[(3R)-1-pyridazin-3-ylpyrrolidin-3-yl]amino]-1,3,4-thiadiazol-2-yl]-2-[3-(trifluoromethoxy)phenyl]acetamide] |  | 8.28 |  |
| 8.32 |  | 6.70 | COc1ccc([C@@H](C(=O)Nc2nnc(N[C@@H]3CCN(c4cccnn4)C3)s2)N(C)C)cc1 [Example 16, (2S)-2-(dimethylamino)-2-(4-methoxyphenyl)-N-[5-[[(3R)-1-pyridazin-3-ylpyrrolidin-3-yl]amino]-1,3,4-thiadiazol-2-yl]acetamide] |  | 6.88 |  |
| 8.85 | 6.61 |  | O=C(Nc1nnc(N[C@@H]2CCN(c3ccc(F)nn3)C2)s1)[C@@H](c1cccc(OC(F)(F)F)c1)N1CCC1 [Example 12(b), (2R)-2-(azetidin-1-yl)-N-[5-[[(3R)-1-(6-fluoropyridazin-3-yl)pyrrolidin-3-yl]amino]-1,3,4-thiadiazol-2-yl]-2-[3-(trifluoromethoxy)phenyl]acetamide] | 7.89 |  |  |
